Values after ≈ are worked out from the molar mass of the structure shown. Like-named read-outs stand apart in the source and are kept apart here. Positions of bridges follow the written chain, without caps; N, C: chain ends. Non-standard residues stand in square brackets, D forms with d. Residues, ends and D or L forms follow the SMILES beside them. NMeF = CN[C@@H](Cc1ccccc1)C(=O)O; Cha = N[C@@H](CC1CCCCC1)C(=O)O; NMeNva = CCC[C@H](NC)C(=O)O; NMeAbu = CC[C@H](NC)C(=O)O; NMeC = CN[C@@H](CS)C(=O)O; NMeA = CN[C@@H](C)C(=O)O; dAbu = CC[C@@H](N)C(=O)O; dNMeA = CN[C@H](C)C(=O)O; Nva = CCC[C@H](N)C(=O)O; Abu = CC[C@H](N)C(=O)O; Nleu = CC(C)CNCC(=O)O; NPrGly = CCCNCC(=O)O; NEtG = CCNCC(=O)O

Data set [1] relates to Mdr1 knockout Madin–Darby canine kidney (MDCK) cells.
The conditions of data set [2]: MDCK.
Data set [3] in a line: PAMPA, individually resynthesized pure compounds (primary protocol).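 Further: artificial membrane of 1% soy lecithin in dodecane on a filter plate, donor and acceptor buffer PBS pH 7.4 with 5% DMSO, incubated overnight at room temperature.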 Background: In PAMPA a lipid-coated filter parts donor from acceptor wells.
Experimental: (§1) assay was carried out with a 96-well donor plate with 0.45 μ hydrophobic Immobilon-P membrane supports
(§2) (Millipore MAIPNTR10) and a 96-well Teflon acceptor plate (Millipore MSSACCEPTOR). The PAMPA
protocol then proceeded as follows:
(§3) Donor well solutions were prepared to a volume of 1 000 µL with the analytes as a solution in 1X
(§4) PBS pH 7.4 and 5% DMSO. To a 3 mL Eppendorf tube was added 950 µL of 1X PBS pH 7.4, 40
Analyte – 10 µM per compound
(§5) sonicated (5 min) to ensure full dissolution of the lecithin. The donor membrane plate was turned
(§6) upside down and bottom of the membranes exposed. 5 µL of the 1% soy lecithin solution in
(§7) dodecane was then placed on the bottom of the membrane, allowing the drop to spread across the
(§8) full area of the membrane. Any membranes with visible damage were not used in the assay. The
(§9) membranes were allowed to equilibrate for 5 min before loading.
(§10) 3. Each well within the Teflon block acceptor plate that was to be used in the assay was then loaded
(§11) with 300 µL of 1X PBS pH 7.4 and 5% DMSO.
(§12) Working without break, 150 µL of each donor well solution was transferred from the to the 96-well
(§13) donor plate. Each mixture of interest was r un in quadruplicate, using a new well for each replicate.
(§14) As soon as the 96-well donor plate was finished being loaded, it was gently placed into the 96-well
(§15) Teflon acceptor plate, taking care not to trap any air bubbles beneath the membrane.
(§16) The donor/acceptor plates were covered gently with the lid to minimize evaporation and transferred
(§17) gently as a system to a sealed chamber and left to sit overnight at room temperature. The chamber
(§18) was kept from drying by placing a wet paper towel within to prevent evaporation.
(§19) After ~19-20 hours the donor plate was removed from the acceptor plate.
(§20) 50 µL of each well (donor and acceptor) were transferred to a 96 -well plate and diluted with 50 µL
(§21) of methanol prior to heat sealing and quantification by UPLC -MS.
Data set [4] is described as follows: in vitro. Conditions: dog, pH 7.4.
The nature of data set [5]: in vitro. Conditions: PAMPA.
Experimental: as §1, §2
protocol then proceeded as follows:
as §3, §4
Analyte – 10 µM per compound
as §5, §6, §7, §8, §9, §10, §11, §12, §13, §14, §15, §16, §17, §18, §19, §20, §21
For data set [6] the following is noted: PAMPA.
Experimental: as §1, §2
protocol then proceeded as follows:
as §3, §4
Analyte – 10 µM per compound
as §5, §6, §7, §8, §9, §10, §11, §12, §13, §14, §15, §16, §17, §18, §19, §20, §21
The conditions of data set [7]: 10 µM, pH 7.4.
Experimental: as §1, §2
protocol then proceeded as follows:
as §3, §4
Analyte – 10 µM per compound
as §5, §6, §7, §8, §9, §10, §11, §12, §13, §14, §15, §16, §17, §18, §19, §20, §21
The conditions of data set [8]: PAMPA, 10 µM, pH 7.4.
Data set [9] can be described thus: in vitro. As to conditions: PAMPA, pH 7.4, Permeability (Papp) PAMPA (mixture).
On the set-up of data set [10]: method as in Fouché et al. As to conditions: rat; ref Fouché et al.; cited from earlier work.
On the set-up of data set [11]: method as in Fouché et al. As to conditions: ref Fouché et al.; cited from earlier work.
Setting [12] is: pH 7.4, kinetic from dmso stock.
Where [13] appears, read: pH 7.4, Permeability (Papp) PAMPA (indiv.).
Where [14] appears, read: pH 7.4, aqueous with cosolvent or surfactant or cyclodextrin, kinetic from dmso stock.

Experimental for physchem: Kinetic Solubility PBS Protocol
4 µL of 10 mM compound in DMSO stock was added to 196 µL 1 X PBS pH 7.4 in a 96 -well microplate to
get a final concentration of 200 µM to shake for 24 hours at 1000 rpm. The sample was filtered sample
using a 96-Multiscreen HTS filter plate (Millipore MSSL BPC50) and a positive pressure manifold.

For `CCOC(=O)[C@@H]1CSCC(=O)N[C@H](CC)C(=O)N(C)[C@@H](C)C(=O)N[C@@H](CC(C)C)C(=O)N(C)[C@H](C)C(=O)N(CC(C)C)CC(=O)N[C@H](CC(C)C)C(=O)N(C)[C@H](C)C(=O)N[C@@H](CC(C)C)C(=O)N1C` [A1, O=C(N(C)[C@H](C(OCC)=O)CSCC(N[C@@H](C(N(C)[C@@H](C)C(N[C@@H](CC(C)C)C(N(C)[C@H](C)C(N(CC(C)C)CC(N[C@@H]1CC(C)C)=O)=O)=O)=O)=O)CC)=O)[C@H](CC(C)C)NC([C@@H](C)N(C)C1=O)=O] ({CH2CO}-[dAbu][NMeA]L[dNMeA][Nleu][dL][dNMeA]L[NMeC]-OEt; thioether N-9), the “MDCK Pe_avg” value in data set [1] (resynthesized stereoscan compounds, 10 μM, HBSS pH 7.4, 3 h) came to 9.02 ×10⁻⁶ cm/s. Besides, the Papp was 9 ×10⁻⁶ cm/s in [2]; 10 ×10⁻⁶ cm/s in data set [3] (PAMPA Papp, Figure 5); approximately 10 ×10⁻⁶ cm/s in data set [3] (Papp).
Molecule `CCOC(=O)[C@@H]1CSCC(=O)N[C@@H](CC)C(=O)N(C)[C@@H](C)C(=O)N[C@@H](CC(C)C)C(=O)N(C)[C@H](C)C(=O)N(CC(C)C)CC(=O)N[C@H](CC(C)C)C(=O)N(C)[C@H](C)C(=O)N[C@@H](CC(C)C)C(=O)N1C` [A1-1L, O=C(N(C)[C@H](C(OCC)=O)CSCC(N[C@H](C(N(C)[C@@H](C)C(N[C@@H](CC(C)C)C(N(C)[C@H](C)C(N(CC(C)C)CC(N[C@@H]1CC(C)C)=O)=O)=O)=O)=O)CC)=O)[C@H](CC(C)C)NC([C@@H](C)N(C)C1=O)=O] ({CH2CO}-[Abu][NMeA]L[dNMeA][Nleu][dL][dNMeA]L[NMeC]-OEt; thioether N-9) registered a Papp A→B in “in vitro [4]” of 0.93 ×10⁻⁶ cm/s. In addition, the Papp in data set [2] worked out at 0.9 ×10⁻⁶ cm/s.
In the case of `CCOC(=O)[C@@H]1CSCC(=O)N[C@H](CC)C(=O)N(C)[C@@H](C)C(=O)N[C@@H](CC(C)C)C(=O)N2CCC[C@@H]2C(=O)N(CC(C)C)CC(=O)N[C@H](CC(C)C)C(=O)N(C)[C@H](C)C(=O)N[C@@H](CC(C)C)C(=O)N1C` [A1-4dP, O=C(N(C)[C@H](C(OCC)=O)CSCC(N[C@@H](C(N(C)[C@@H](C)C(N[C@@H](CC(C)C)C(N1[C@H](CCC1)C(N(CC(C)C)CC(N[C@@H]2CC(C)C)=O)=O)=O)=O)=O)CC)=O)[C@H](CC(C)C)NC([C@@H](C)N(C)C2=O)=O] ({CH2CO}-[dAbu][NMeA]L[dP][Nleu][dL][dNMeA]L[NMeC]-OEt; thioether N-9), the Papp A→B at 3 h, 10 µM in the data set “in vitro [4]” came out at 0.0246 ×10⁻⁶ cm/s. Also, the “MDCK Papp” value in data set [1] (MDCK) is on record as 0.0 × 10^–6 cm/s. The molecule further displayed an apparent permeability coefficient (Papp) at 10 µM in the data set “in vitro [5]” (pH 7.4, PAMPA Pe_avg) of 0.398 ×10⁻⁶ cm/s. In data set [6], the Papp stood at 0.3 ×10⁻⁶ cm/s.
For the molecule `CCOC(=O)[C@@H]1CSCC(=O)N[C@H](CC)C(=O)N(C)[C@@H](C)C(=O)N[C@@H](CC(C)C)C(=O)N(C)[C@H](C)C(=O)N(CC(C)C)CC(=O)N[C@@H](CC(C)C)C(=O)N(C)[C@H](C)C(=O)N[C@@H](CC(C)C)C(=O)N1C` [A1-6L, O=C(N(C)[C@H](C(OCC)=O)CSCC(N[C@@H](C(N(C)[C@@H](C)C(N[C@@H](CC(C)C)C(N(C)[C@H](C)C(N(CC(C)C)CC(N[C@H]1CC(C)C)=O)=O)=O)=O)=O)CC)=O)[C@H](CC(C)C)NC([C@@H](C)N(C)C1=O)=O] ({CH2CO}-[dAbu][NMeA]L[dNMeA][Nleu]L[dNMeA]L[NMeC]-OEt; thioether N-9), the Papp A→B in “in vitro [4]” was determined as 0.86 ×10⁻⁶ cm/s. The Papp in data set [2] was 0.9 ×10⁻⁶ cm/s.
As for `CCOC(=O)[C@@H]1CSCC(=O)N[C@@H](CC(C)C)C(=O)N(C)[C@@H](C)C(=O)N[C@@H](CC(C)C)C(=O)N2CCC[C@@H]2C(=O)N(CC)CC(=O)N[C@@H](CC)C(=O)N(C)[C@@H](C)C(=O)N[C@@H](CC(C)C)C(=O)N1C` [LA02, O=C(N(C)[C@H](C(OCC)=O)CSCC(N[C@H](C(N(C)[C@@H](C)C(N[C@@H](CC(C)C)C(N1[C@H](CCC1)C(N(CC)CC(N[C@H]2CC)=O)=O)=O)=O)=O)CC(C)C)=O)[C@H](CC(C)C)NC([C@H](C)N(C)C2=O)=O] ({CH2CO}-L[NMeA]L[dP][NEtG][Abu][NMeA]L[NMeC]-OEt; thioether N-9), the “PAMPA Papp_avg” value in [7] was 4.1 ×10⁻⁶ cm/s. In the data set “in vitro [4]” (MDCK), this molecule had a Papp A→B at 3 h, 10 µM of 4.5 ×10⁻⁶ cm/s and a Papp at 3 h, 10 µM of 4.5 ×10⁻⁶ cm/s. For the same molecule, the “%R_avg” value in [8] worked out at 17.1%. Further, in the data set “physchem” (setting [12]), the kinetic solubility at 24 h came out at 200 µM (≈ 196 µg/mL). Further, the apparent permeability (Papp) at 10 µM in the data set “in vitro [5]” (setting [13]) is 4.1 ×10⁻⁶ cm/s.
As for `CCCN1CC(=O)N[C@@H](CC)C(=O)N(C)[C@@H](C)C(=O)N[C@@H](CC(C)C)C(=O)N(C)[C@H](C(=O)OCC)CSCC(=O)N[C@@H](CC(C)C)C(=O)N(C)[C@@H](C)C(=O)N[C@@H](CC(C)C)C(=O)N2CCC[C@@H]2C1=O` [LA04, O=C(N(C)[C@H](C(OCC)=O)CSCC(N[C@H](C(N(C)[C@@H](C)C(N[C@@H](CC(C)C)C(N1[C@H](CCC1)C(N(CCC)CC(N[C@H]2CC)=O)=O)=O)=O)=O)CC(C)C)=O)[C@H](CC(C)C)NC([C@H](C)N(C)C2=O)=O] ({CH2CO}-L[NMeA]L[dP][NPrGly][Abu][NMeA]L[NMeC]-OEt; thioether N-9), in [7], the “PAMPA Papp_avg” value was determined as 3.86 ×10⁻⁶ cm/s. The molecule also had a Papp A→B at 3 h, 10 µM in the data set “in vitro [4]” (MDCK) of 4 ×10⁻⁶ cm/s. The Papp at 10 µM in “in vitro [9]” amounted to 4 ×10⁻⁶ cm/s; in the data set “in vitro [5]” (setting [13]), 3.9 ×10⁻⁶ cm/s. Also, the “%R_avg” value in [8] is reported as 8.2%. Besides, the kinetic solubility at 24 h in the data set “physchem” (setting [12]) was determined as 200 µM (≈ 199 µg/mL).
For `CCC[C@H]1C(=O)N[C@@H](CC)C(=O)N(C)[C@@H](C)C(=O)N[C@@H](CC(C)C)C(=O)N(C)[C@H](C(=O)OCC)CSCC(=O)N[C@@H](CC(C)C)C(=O)N(C)[C@@H](C)C(=O)N[C@@H](CC(C)C)C(=O)N2CCC[C@@H]2C(=O)N1C` [LC04, O=C(N(C)[C@H](C(OCC)=O)CSCC(N[C@H](C(N(C)[C@@H](C)C(N[C@@H](CC(C)C)C(N1[C@H](CCC1)C(N(C)[C@@H](CCC)C(N[C@H]2CC)=O)=O)=O)=O)=O)CC(C)C)=O)[C@H](CC(C)C)NC([C@H](C)N(C)C2=O)=O] ({CH2CO}-L[NMeA]L[dP][NMeNva][Abu][NMeA]L[NMeC]-OEt; thioether N-9), the “PAMPA Papp_avg” value in data set [7] was determined as 3.3 ×10⁻⁶ cm/s. This molecule also had a Papp A→B at 3 h, 10 µM in “in vitro [4]” (MDCK) of 6.5 ×10⁻⁶ cm/s. The “%R_avg” value in data set [8] was 11.2%. Moreover, the kinetic solubility at 24 h in “physchem” (setting [14]) is 183 µM (≈ 185 µg/mL). The molecule further returned a Papp at 10 µM in the data set “in vitro [5]” (setting [13]) of 3.3 ×10⁻⁶ cm/s.
On to `CCC[C@@H]1NC(=O)[C@H](C)N(C)C(=O)[C@H](CC(C)C)NC(=O)CSC[C@@H](C(=O)OCC)N(C)C(=O)[C@H](CC(C)C)NC(=O)[C@H](C)N(C)C(=O)[C@H](CC2CCCCC2)NC(=O)[C@H](CC)N(C)C(=O)[C@H]2CCCN2C1=O` [LC09, O=C(N(C)[C@H](C(OCC)=O)CSCC(N[C@H](C(N(C)[C@@H](C)C(N[C@@H](CCC)C(N1[C@H](CCC1)C(N(C)[C@@H](CC)C(N[C@H]2CC3CCCCC3)=O)=O)=O)=O)=O)CC(C)C)=O)[C@H](CC(C)C)NC([C@H](C)N(C)C2=O)=O] ({CH2CO}-L[NMeA][Nva][dP][NMeAbu][Cha][NMeA]L[NMeC]-OEt; thioether N-9), for which the Papp A→B at 3 h, 10 µM in “in vitro [4]” (MDCK) worked out at 1.8 ×10⁻⁶ cm/s. Besides, in data set [1] (dog, MDCK, 3 h, 10 µM, pH 7.4), the “MDCK Papp_avg” value came to 1.8 ×10⁻⁶ cm/s. The “%R_avg” value in data set [8] came to 6.1%. This molecule showed a solubility (kinetic) at 24 h in the data set “physchem” (setting [14]) of 10 µM (≈ 10.5 µg/mL). Moreover, in the data set “in vitro [5]” (setting [13]), the Papp at 10 µM is 0.3 ×10⁻⁶ cm/s.
As for `CC(C)C[C@@H]1NC(=O)[C@H](Cc2ccccc2)N(C)C(=O)[C@H]2CCCN2C(=O)[C@H](CC(C)C)NC(=O)[C@H](C)N(C)C(=O)[C@H](CC(C)C)NC(=O)[C@H](Cc2ccccc2)N(C)C(=O)[C@H]2CCCN2C(=O)[C@H](CC(C)C)NC(=O)[C@H](C)N(C)C1=O` [compound 1] (cyclo(L[NMeA]L[dP][NMeF]L[NMeA]L[dP][NMeF])), the oral bioavailability in data set [10] was 46 %F. Further, the “PAMPA Papp” value in data set [11] is 5.01 × 10^–6 cm/s. Moreover, the apparent permeability coefficient (Papp) turned out to be 11.4 ×10⁻⁶ cm/s in data set [2] and 5 ×10⁻⁶ cm/s in [6].

One may read the Papp as a coefficient for how fast a substance crosses the barrier. In general, Papp A→B refers to the apparent permeability from the apical to the basolateral side of a cell layer. Higher therefore signals ready permeation. Broadly, the solubility (kinetic) is the concentration staying in solution when a stock, usually in DMSO, is diluted into the medium.
